Data from patent publication US20090226527A1, “Particulate-stabilized injectable pharmacutical compositions of posaconazole” (priority 2004, published 2009).
Values after ≈ are worked out from the molar mass of the structure shown.

System: infectious agents (strains tested)
Test: microbe, parasite or virus in culture
Type: cell-based

CCC(C)n1ncn(-c2ccc(N3CCN(c4ccc(OCC5COC(Cn6cncn6)(c6ccc(Cl)cc6Cl)O5)cc4)CC3)cc2)c1=O (centres unmarked) [Itraconazole]
MIC (Hansenula anomala, Pichia anomala, read-out: Geometric Mean MIC): 0.375 µg/mL (≈ 0.531 µM)
MIC (Hansenula anomala, Pichia anomala, read-out: MIC[90]): 1 µg/mL (≈ 1.42 µM)
MIC (Histoplasma capsulatum, read-out: Geometric Mean MIC, Histoplasma capsulatum): 0.018 µg/mL (≈ 0.0255 µM)
MIC (Histoplasma capsulatum, read-out: MIC[90], Histoplasma capsulatum): 0.063 µg/mL (≈ 0.0893 µM)
MIC (Kluyveromyces marxianus, Candida kefyr, read-out: Geometric Mean MIC): 0.188 µg/mL (≈ 0.266 µM)
MIC (Kluyveromyces marxianus, Candida kefyr, read-out: MIC[90]): 0.5 µg/mL (≈ 0.709 µM)
MIC (Kluyveromyces marxianus, read-out: Geometric Mean MIC): 0.07 µg/mL (≈ 0.0992 µM)
MIC (Kluyveromyces marxianus, read-out: MIC[90]): 0.031 to 0.125 µg/mL (≈ 0.0439 to 0.177 µM)
MIC (Lodderomyces parapsilosis, Candida parapsilosis, read-out: Geometric Mean MIC): 0.161 µg/mL (≈ 0.228 µM)
MIC (Lodderomyces parapsilosis, Candida parapsilosis, read-out: MIC[90]): 0.5 µg/mL (≈ 0.709 µM)
MIC (Meyerozyma guilliermondii, Candida guilliermondii, read-out: Geometric Mean MIC): 0.479 µg/mL (≈ 0.679 µM)
MIC (Meyerozyma guilliermondii, Candida guilliermondii, read-out: MIC[90]): 1 µg/mL (≈ 1.42 µM)
MIC (Microsporum audouinii, read-out: Geometric Mean MIC): 0.125 µg/mL (≈ 0.177 µM)
MIC (Microsporum audouinii, read-out: MIC[90]): 0.125 µg/mL (≈ 0.177 µM)
MIC (Microsporum canis, read-out: Geometric Mean MIC): 0.041 µg/mL (≈ 0.0581 µM)
MIC (Microsporum canis, read-out: MIC[90]): 2 µg/mL (≈ 2.83 µM)
MIC (Mucor spp, read-out: Geometric Mean MIC): 2.38 µg/mL (≈ 3.37 µM)
MIC (Mucor spp, read-out: MIC[90]): 16 µg/mL (≈ 22.7 µM)
MIC (Nakaseomyces glabratus, Candida glabrata, read-out: Geometric Mean MIC): 0.853 µg/mL (≈ 1.21 µM)
MIC (Nakaseomyces glabratus, Candida glabrata, read-out: MIC[90]): 4 µg/mL (≈ 5.67 µM)
MIC (Nannizzia fulva, Microsporum fulvum, read-out: Geometric Mean MIC): 4 µg/mL (≈ 5.67 µM)
MIC (Nannizzia fulva, Microsporum fulvum, read-out: MIC[90]): 4 µg/mL (≈ 5.67 µM)
MIC (Nannizzia gypsea, Microsporum gypseum, read-out: Geometric Mean MIC): 0.044 µg/mL (≈ 0.0624 µM)
MIC (Nannizzia gypsea, Microsporum gypseum, read-out: MIC[90]): 0.016 to 0.5 µg/mL (≈ 0.0227 to 0.709 µM)
MIC (Nannizzia persicolor, Microsporum persicolor, read-out: Geometric Mean MIC): 0.5 µg/mL (≈ 0.709 µM)
MIC (Nannizzia persicolor, Microsporum persicolor, read-out: MIC[90]): 0.5 µg/mL (≈ 0.709 µM)
MIC (Paecilomyces spp, read-out: Geometric Mean MIC): 0.64 µg/mL (≈ 0.907 µM)
MIC (Paecilomyces spp, read-out: MIC[90]): 2 µg/mL (≈ 2.83 µM)
MIC (Papiliotrema laurentii, Cryptococcus laurentii, read-out: Geometric Mean MIC): 0.397 µg/mL (≈ 0.563 µM)
MIC (Papiliotrema laurentii, Cryptococcus laurentii, read-out: MIC[90]): 0.25 to 0.5 µg/mL (≈ 0.354 to 0.709 µM)
MIC (Paracoccidioides brasiliensis, read-out: Geometric Mean MIC, Paracoccidioides brasiliensis): 0.025 µg/mL (≈ 0.0354 µM)
MIC (Paracoccidioides brasiliensis, read-out: MIC[90], Paracoccidioides brasiliensis): 0.063 µg/mL (≈ 0.0893 µM)
MIC (Penicillium spp, read-out: Geometric Mean MIC): 0.853 µg/mL (≈ 1.21 µM)
MIC (Penicillium spp, read-out: MIC[90]): 2 µg/mL (≈ 2.83 µM)
MIC (Pichia kudriavzevii, Candida krusei, read-out: Geometric Mean MIC): 0.576 µg/mL (≈ 0.816 µM)
MIC (Pichia kudriavzevii, Candida krusei, read-out: MIC[90]): 1 µg/mL (≈ 1.42 µM)
MIC (Pleurothecium obovoideum, Ramichloridium obovoideum, read-out: Geometric Mean MIC): 0.016 µg/mL (≈ 0.0227 µM)
MIC (Pleurothecium obovoideum, Ramichloridium obovoideum, read-out: MIC[90]): 0.016 µg/mL (≈ 0.0227 µM)
MIC (Rhizomucor spp, read-out: Geometric Mean MIC): 0.016 µg/mL (≈ 0.0227 µM)
MIC (Rhizomucor spp, read-out: MIC[90]): 0.016 µg/mL (≈ 0.0227 µM)
MIC (Rhizopus spp, read-out: Geometric Mean MIC): 3.28 µg/mL (≈ 4.65 µM)
MIC (Rhizopus spp, read-out: MIC[90]): 16 µg/mL (≈ 22.7 µM)
MIC (Saccharomyces cerevisiae, read-out: Geometric Mean MIC): 0.418 µg/mL (≈ 0.592 µM)
MIC (Saccharomyces cerevisiae, read-out: MIC[90]): 2 µg/mL (≈ 2.83 µM)
MIC (Scedosporium apiospermum, read-out: Geometric Mean MIC): 1.34 µg/mL (≈ 1.9 µM)
MIC (Scedosporium apiospermum, read-out: MIC[90]): 32 µg/mL (≈ 45.3 µM)
MIC (Scedosporium boydii, Pseudallescheria boydii, read-out: Geometric Mean MIC): 0.506 µg/mL (≈ 0.717 µM)
MIC (Scedosporium boydii, Pseudallescheria boydii, read-out: MIC[90]): 1 µg/mL (≈ 1.42 µM)
MIC (Sporothrix schenckii, read-out: Geometric Mean MIC): 0.302 µg/mL (≈ 0.428 µM)
MIC (Sporothrix schenckii, read-out: MIC[90]): 0.5 µg/mL (≈ 0.709 µM)
MIC (Trichophyton mentagrophytes, read-out: Geometric Mean MIC): 0.041 µg/mL (≈ 0.0581 µM)
MIC (Trichophyton mentagrophytes, read-out: MIC[90]): 0.25 µg/mL (≈ 0.354 µM)
MIC (Trichophyton rubrum, Trichophyton raubitschekii, read-out: Geometric Mean MIC): 0.25 µg/mL (≈ 0.354 µM)
MIC (Trichophyton rubrum, Trichophyton raubitschekii, read-out: MIC[90]): 0.25 µg/mL (≈ 0.354 µM)
MIC (Trichophyton rubrum, read-out: Geometric Mean MIC): 0.074 µg/mL (≈ 0.105 µM)
MIC (Trichophyton rubrum, read-out: MIC[90]): 0.25 µg/mL (≈ 0.354 µM)
MIC (Trichophyton soudanense, read-out: Geometric Mean MIC): 4 µg/mL (≈ 5.67 µM)
MIC (Trichophyton soudanense, read-out: MIC[90]): 4 µg/mL (≈ 5.67 µM)
MIC (Trichophyton tonsurans, read-out: Geometric Mean MIC): 0.036 µg/mL (≈ 0.051 µM)
MIC (Trichophyton tonsurans, read-out: MIC[90]): 0.063 µg/mL (≈ 0.0893 µM)
MIC (Trichosporon spp, read-out: Geometric Mean MIC): 1.12 µg/mL (≈ 1.59 µM)
MIC (Trichosporon spp, read-out: MIC[90]): 0.5 to 2 µg/mL (≈ 0.709 to 2.83 µM)
